Data reported in patent US20220009920A1 (GB005, Inc., priority 2020, published 2022).

How the values were obtained:
Assay in all cases: Large panel kinase profiling
Type in all cases: biochemical
Details in all cases: 1 μM test article, 1 mM ATP
AKT3 = AKT3 (Homo sapiens, UniProt Q9Y243)
Method in brief: (§1)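 One compound concentration (1 μM) was screened against each kinase at 1 mM ATP using PhosphoSens CSox-Sensor detection, at 30° C., with fluorescence read every 1 min (Ex 360 nm/Em 485 nm).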

BUB1 = BUB1 (Homo sapiens, UniProt O43683)
BUB1, sequence (O43683 whole entry): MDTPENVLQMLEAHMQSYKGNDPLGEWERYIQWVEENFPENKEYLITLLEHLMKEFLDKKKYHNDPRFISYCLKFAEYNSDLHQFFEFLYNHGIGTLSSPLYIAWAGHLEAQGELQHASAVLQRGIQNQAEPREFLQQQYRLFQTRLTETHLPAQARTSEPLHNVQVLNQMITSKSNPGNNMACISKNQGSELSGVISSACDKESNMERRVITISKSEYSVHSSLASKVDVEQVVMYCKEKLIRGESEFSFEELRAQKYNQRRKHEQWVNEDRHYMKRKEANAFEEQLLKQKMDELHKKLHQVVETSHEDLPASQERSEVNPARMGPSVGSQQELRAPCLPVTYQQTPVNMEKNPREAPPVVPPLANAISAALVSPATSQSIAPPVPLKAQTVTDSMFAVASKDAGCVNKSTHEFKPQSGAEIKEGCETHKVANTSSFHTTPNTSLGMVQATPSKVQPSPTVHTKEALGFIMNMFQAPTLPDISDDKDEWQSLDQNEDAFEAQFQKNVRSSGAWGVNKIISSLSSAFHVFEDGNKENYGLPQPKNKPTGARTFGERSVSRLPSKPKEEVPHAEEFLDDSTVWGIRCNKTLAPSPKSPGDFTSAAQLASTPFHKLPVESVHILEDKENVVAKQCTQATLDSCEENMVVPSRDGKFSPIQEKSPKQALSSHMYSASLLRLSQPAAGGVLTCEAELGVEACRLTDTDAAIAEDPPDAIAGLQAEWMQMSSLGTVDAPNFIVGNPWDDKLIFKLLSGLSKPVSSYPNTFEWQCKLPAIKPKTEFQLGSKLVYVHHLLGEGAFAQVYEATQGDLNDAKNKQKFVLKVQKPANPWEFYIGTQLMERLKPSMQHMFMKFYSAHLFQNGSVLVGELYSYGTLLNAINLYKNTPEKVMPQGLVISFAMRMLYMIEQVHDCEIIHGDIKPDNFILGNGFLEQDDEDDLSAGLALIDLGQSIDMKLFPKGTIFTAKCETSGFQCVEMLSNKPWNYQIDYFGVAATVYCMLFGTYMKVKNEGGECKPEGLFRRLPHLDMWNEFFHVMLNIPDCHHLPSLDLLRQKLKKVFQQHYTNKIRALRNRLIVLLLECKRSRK
Method in brief: as §1

EIF2AK4/GCN2 = EIF2AK4/GCN2 (Homo sapiens, UniProt Q9P2K8)
EIF2AK4/GCN2, sequence (Q9P2K8 whole entry): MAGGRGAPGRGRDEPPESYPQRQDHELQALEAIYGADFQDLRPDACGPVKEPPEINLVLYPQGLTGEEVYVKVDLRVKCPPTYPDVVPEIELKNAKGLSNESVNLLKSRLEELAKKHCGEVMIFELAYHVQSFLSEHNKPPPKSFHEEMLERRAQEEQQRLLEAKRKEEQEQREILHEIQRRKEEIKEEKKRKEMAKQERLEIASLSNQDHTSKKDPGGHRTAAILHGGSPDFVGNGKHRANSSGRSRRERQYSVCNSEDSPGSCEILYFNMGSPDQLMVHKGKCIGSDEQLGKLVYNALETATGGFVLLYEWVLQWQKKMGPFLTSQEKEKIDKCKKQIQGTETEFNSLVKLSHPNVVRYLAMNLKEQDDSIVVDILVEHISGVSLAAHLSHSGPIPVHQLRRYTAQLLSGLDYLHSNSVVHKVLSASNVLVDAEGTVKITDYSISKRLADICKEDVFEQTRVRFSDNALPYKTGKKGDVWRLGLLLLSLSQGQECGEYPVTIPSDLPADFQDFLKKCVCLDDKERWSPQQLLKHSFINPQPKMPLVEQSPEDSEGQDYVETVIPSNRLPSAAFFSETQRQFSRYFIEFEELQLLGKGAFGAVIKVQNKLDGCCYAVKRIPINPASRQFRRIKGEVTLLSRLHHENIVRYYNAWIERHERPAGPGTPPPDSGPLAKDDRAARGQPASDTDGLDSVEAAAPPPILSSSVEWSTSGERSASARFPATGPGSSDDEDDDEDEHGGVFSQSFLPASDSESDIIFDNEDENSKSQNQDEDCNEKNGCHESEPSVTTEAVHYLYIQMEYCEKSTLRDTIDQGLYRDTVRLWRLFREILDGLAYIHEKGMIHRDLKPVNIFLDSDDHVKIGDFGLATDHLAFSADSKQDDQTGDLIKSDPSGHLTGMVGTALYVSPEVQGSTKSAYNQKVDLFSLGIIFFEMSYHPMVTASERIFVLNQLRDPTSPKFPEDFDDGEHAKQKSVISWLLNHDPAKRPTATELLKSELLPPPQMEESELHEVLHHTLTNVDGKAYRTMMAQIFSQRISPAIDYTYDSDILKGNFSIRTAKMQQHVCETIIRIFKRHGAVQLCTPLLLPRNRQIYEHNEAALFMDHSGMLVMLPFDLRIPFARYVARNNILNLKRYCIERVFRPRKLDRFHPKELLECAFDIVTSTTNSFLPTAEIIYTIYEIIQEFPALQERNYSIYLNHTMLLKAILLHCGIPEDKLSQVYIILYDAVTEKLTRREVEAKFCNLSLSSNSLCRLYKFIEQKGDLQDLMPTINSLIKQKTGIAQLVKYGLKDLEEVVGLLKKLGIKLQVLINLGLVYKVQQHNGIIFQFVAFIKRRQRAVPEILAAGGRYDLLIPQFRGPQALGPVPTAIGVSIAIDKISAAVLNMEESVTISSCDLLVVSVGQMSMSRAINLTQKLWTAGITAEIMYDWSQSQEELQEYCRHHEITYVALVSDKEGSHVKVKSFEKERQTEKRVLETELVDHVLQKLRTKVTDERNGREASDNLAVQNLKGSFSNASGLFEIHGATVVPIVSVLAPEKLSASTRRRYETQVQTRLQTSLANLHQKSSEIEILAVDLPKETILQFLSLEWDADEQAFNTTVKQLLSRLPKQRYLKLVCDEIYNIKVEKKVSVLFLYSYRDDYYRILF
Method in brief: as §1

EPHA4 = EPHA4 (Homo sapiens, UniProt P54764)
EPHA4, sequence (P54764 20-986, species assumed): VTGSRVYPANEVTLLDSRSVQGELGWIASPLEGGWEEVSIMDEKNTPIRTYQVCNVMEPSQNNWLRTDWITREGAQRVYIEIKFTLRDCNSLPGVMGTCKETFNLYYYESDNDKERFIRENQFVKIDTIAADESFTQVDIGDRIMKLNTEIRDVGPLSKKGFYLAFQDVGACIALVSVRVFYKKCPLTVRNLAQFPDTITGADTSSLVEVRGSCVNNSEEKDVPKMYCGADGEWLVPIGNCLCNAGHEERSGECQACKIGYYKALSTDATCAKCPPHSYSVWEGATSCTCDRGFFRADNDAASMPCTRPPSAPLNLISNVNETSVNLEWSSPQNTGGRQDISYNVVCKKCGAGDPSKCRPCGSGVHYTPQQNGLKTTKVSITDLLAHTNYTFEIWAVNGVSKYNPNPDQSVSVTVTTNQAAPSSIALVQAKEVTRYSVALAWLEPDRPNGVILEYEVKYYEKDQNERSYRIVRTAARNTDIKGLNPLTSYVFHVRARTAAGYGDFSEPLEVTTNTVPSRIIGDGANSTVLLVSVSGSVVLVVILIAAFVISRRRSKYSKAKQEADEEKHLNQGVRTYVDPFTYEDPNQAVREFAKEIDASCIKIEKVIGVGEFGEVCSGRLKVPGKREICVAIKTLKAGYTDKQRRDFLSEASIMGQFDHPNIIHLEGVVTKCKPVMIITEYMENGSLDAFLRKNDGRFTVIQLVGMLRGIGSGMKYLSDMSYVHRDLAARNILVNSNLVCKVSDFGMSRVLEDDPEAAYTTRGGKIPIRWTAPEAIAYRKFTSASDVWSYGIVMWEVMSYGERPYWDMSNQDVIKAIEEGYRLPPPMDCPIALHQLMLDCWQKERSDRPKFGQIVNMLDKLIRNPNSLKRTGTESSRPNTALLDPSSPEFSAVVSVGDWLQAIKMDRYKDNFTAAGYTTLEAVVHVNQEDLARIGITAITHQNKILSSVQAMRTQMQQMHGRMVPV
Method in brief: as §1

FGR = FGR (Homo sapiens, UniProt P09769)
Method in brief: as §1

PRKCH/PKCH = PRKCH/PKCH (Homo sapiens, UniProt P24723)
PRKCH/PKCH, sequence (P24723 whole entry): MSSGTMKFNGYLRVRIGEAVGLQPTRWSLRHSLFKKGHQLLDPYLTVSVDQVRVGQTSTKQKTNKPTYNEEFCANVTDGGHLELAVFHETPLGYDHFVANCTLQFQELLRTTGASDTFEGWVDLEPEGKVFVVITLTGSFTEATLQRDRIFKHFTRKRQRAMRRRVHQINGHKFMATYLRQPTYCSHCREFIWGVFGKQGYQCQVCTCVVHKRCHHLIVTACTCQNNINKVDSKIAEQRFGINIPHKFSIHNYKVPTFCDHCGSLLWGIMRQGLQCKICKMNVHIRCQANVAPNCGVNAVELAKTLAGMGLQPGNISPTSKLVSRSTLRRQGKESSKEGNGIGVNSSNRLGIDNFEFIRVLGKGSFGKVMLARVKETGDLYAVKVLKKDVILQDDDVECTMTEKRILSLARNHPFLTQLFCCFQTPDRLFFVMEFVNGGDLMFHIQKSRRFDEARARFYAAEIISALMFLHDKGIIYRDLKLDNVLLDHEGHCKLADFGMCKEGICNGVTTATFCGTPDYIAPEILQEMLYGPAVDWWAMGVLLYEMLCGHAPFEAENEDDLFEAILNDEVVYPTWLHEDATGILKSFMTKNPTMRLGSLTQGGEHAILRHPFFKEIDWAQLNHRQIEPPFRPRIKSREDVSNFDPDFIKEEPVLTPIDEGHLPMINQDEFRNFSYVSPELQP
Method in brief: as §1

PRKCI/PKCI = target: T1, PRKCI/PKCI (Homo sapiens, UniProt P41743)
T1 sequence (P41743 1-596): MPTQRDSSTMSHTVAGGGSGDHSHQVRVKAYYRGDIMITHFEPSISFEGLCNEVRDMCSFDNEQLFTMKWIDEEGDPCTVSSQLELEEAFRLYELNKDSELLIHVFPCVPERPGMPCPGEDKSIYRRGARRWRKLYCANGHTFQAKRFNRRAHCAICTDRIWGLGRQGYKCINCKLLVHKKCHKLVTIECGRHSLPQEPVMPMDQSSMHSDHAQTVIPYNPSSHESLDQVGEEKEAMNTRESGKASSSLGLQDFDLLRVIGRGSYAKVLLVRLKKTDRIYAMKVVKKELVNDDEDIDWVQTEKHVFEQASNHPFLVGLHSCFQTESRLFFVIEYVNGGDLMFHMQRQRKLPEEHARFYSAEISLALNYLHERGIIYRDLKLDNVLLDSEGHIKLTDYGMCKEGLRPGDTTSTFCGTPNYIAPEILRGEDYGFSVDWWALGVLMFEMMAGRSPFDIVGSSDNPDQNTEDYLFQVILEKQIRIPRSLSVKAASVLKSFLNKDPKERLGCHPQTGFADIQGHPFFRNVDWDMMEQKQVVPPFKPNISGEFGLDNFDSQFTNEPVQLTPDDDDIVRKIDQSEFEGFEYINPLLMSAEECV
Method in brief: as §1

SK1 = target: T2, SK1 (Homo sapiens, UniProt P57059)
T2 construct: AssayQuant Technologies, Inc. (contract assay)
Method in brief: as §1

TBK1 = target: T3, TBK1 (Homo sapiens, UniProt Q9UHD2)
T3 construct: AssayQuant Technologies, Inc. (contract laboratory that ran the panel)
T3 sequence (Q9UHD2 1-729): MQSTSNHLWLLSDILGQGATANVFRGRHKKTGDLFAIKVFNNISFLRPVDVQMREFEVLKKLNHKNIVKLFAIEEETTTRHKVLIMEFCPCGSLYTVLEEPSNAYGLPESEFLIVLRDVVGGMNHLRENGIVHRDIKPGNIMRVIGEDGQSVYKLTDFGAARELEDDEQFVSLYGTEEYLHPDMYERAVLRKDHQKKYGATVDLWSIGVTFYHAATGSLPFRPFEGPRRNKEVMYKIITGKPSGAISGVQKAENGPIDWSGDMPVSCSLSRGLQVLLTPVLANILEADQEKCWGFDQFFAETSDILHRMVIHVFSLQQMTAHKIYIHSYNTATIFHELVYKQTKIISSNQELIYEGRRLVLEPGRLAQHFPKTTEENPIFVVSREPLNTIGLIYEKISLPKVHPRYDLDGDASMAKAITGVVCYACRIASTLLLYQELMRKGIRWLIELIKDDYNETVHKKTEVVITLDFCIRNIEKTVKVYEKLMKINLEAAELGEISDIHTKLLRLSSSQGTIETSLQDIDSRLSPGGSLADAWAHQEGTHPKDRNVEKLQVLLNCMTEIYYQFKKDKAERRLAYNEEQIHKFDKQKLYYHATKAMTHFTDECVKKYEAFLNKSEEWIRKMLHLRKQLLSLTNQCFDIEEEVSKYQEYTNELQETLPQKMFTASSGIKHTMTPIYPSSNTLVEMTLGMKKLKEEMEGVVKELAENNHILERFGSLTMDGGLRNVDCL
Method in brief: as §1

TSSK2 = target: T4, TSSK2 (Homo sapiens, UniProt Q96PF2)
T4 construct: AssayQuant Technologies, Inc. (contract laboratory that ran the panel)
T4 sequence (Q96PF2 1-358): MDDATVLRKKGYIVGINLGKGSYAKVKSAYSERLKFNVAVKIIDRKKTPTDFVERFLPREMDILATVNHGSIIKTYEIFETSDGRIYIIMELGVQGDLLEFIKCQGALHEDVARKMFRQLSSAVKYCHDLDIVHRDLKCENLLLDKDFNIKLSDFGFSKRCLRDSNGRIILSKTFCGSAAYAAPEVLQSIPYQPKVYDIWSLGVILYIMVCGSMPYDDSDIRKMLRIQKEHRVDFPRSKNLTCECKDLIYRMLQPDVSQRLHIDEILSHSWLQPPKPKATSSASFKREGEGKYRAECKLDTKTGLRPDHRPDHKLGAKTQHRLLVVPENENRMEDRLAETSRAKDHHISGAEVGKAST
Method in brief: as §1

AKT3, sequence (Q9Y243 whole entry): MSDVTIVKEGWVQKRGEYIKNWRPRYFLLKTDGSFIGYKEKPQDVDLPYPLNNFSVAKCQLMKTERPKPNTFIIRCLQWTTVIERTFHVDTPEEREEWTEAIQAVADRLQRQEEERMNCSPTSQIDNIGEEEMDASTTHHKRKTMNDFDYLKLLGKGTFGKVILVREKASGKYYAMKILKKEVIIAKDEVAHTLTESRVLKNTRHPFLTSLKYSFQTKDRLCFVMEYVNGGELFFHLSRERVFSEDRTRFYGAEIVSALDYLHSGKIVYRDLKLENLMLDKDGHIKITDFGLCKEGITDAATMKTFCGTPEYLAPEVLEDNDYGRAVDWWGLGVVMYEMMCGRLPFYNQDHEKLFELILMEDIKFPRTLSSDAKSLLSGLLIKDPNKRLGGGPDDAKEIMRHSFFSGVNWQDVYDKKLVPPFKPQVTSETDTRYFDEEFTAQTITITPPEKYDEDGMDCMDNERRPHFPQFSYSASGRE

Compound	inhibition at 1 µM (AKT3) [%]	inhibition at 1 µM (BUB1) [%]	inhibition at 1 µM (EIF2AK4/GCN2) [%]	inhibition at 1 µM (EPHA4) [%]	inhibition at 1 µM (FGR) [%]	inhibition at 1 µM (PRKCH/PKCH) [%]	inhibition at 1 µM (PRKCI/PKCI) [%]	inhibition at 1 µM (SK1) [%]	inhibition at 1 µM (TBK1) [%]	inhibition at 1 µM (TSSK2) [%]
C=CC(=O)N1CCCC(c2c(F)cc(C(N)=O)c3[nH]c4c(c23)CCCCC4)C1 (single isomer, unassigned) [Compound 5-6]	-14.4	8.2	-20.4	4.2	17.1	-3.6	-0.6	-13.6	10.9	10.2
C=CC(=O)N1CCC[C@@H](c2c(F)cc(C(N)=O)c3[nH]c4c(c23)CCC4)C1 [Compound 10-2, (S)-8-(1-acryloylpiperidin-3-yl)-7-fluoro-1,2,3,4-tetrahydrocyclo-penta[b]indole-5-carboxamide]	-19.4	-2.3	29.1	-44.2	3.6	-7.9	-3.3	13.5	-31.3	25.3
C=CC(=O)N1CCC[C@@H](c2c(F)cc(C(N)=O)c3[nH]c4c(c23)CC2(CC4)CC2)C1 [Compound 6-2, (S)-5-(1-acryloylpiperidin-3-yl)-6-fluoro-1,2,4,9-tetrahydrospiro[carbazole-3,1′-cyclopropane]-8-carboxamide]	-16.3	-11.5	25.9	4.9	-25.9	5.3	9	4.6	-34.6	22.9
